Reference: patent publication US10787443B2, “RAF-degrading conjugate compounds” (ZAMBONI CHEM SOLUTIONS INC., priority 2017, dated 2020)

system: GST-Braf kinase domain and biotinylated E3 substrate adapter (VHL/EloB/EloC complex or CRBN318-425); experiment: Dimerization assay (AlphaScreen/AlphaLisa), RAF/E3 dimerization; assay type: binding; conditions: Table 17; relative value; compounds 4 fold serial dilutions from 20 μM

Structure (SMILES)	RAF/E3 Dimerization
Cc1ncc(NC(=O)c2cccc(C(F)(F)F)c2)cc1-c1cnc(OCCOCCOCCOCc2cn(CCCCC(=O)N[C@@H](C(=O)N3C[C@H](O)C[C@H]3C(=O)N[C@@H](C)c3ccc(-c4scnc4C)cc3)C(C)(C)C)nn2)c(N2CCOCC2)c1 [Compound 2.009, (2S,4R)-1-((R)-3,3-dimethyl-2-(5-(4-((2-(2-(2-((2′-methyl-5-morpholino-5′-(3-(trifluoromethyl)benzamido)-[3,3′-bipyridin]-6-yl)oxy)ethoxy)ethoxy)ethoxy)methyl)-1H-1,2,3-triazol-1-yl)pentanamido)butanoyl)-4-hydroxy-N—((S)-1-(4-(4-methylthiazol-5-yl)phenyl)ethyl)pyrrolidine-2-carboxamide]	+++ (50% > RAF/E3 Dimerization ≥ 25)
Cc1ccc(NC(=O)c2cccc(C(F)(F)F)c2)cc1-c1cnc(OCCOCCOCCOCc2cn(CCCCCC(=O)N[C@@H](C(=O)N3C[C@H](O)C[C@H]3C(=O)N[C@@H](C)c3ccc(-c4scnc4C)cc3)C(C)(C)C)nn2)c(N2CCOCC2)c1 [Compound 2.011, (2S,4R)-1-((R)-3,3-dimethyl-2-(6-(4-((2-(2-(2-((5-(2-methyl-5-(3-(trifluoromethyl)benza-mido)phenyl)-3-morpholinopyridin-2-yl)oxy)ethoxy)ethoxy)ethoxy)methyl)-1H-1,2,3-triazol-1-yl)hexanamido)butanoyl)-4-hydroxy-N—((S)-1-(4-(4-methylthiazol-5-yl)phenyl)-ethyl)pyrrolidine-2-carboxamide]	+++++ (RAF/E3 Dimerization ≥75%)
Cc1ccc(NC(=O)c2cccc(C(F)(F)F)c2)cc1-c1cnc(OCCCCc2cn(CCCCCC(=O)Nc3cccc4c3C(=O)N(C3CCC(=O)NC3=O)C4=O)nn2)c(N2CCOCC2)c1 (stereo not drawn) [Compound 2.013, N-(3-(6-(4-(1-(6-((2-(2,6-dioxopiperidin-3-yl)-1,3-dioxoisoindolin-4-yl)amino)-6-oxohexyl)-1H-1,2,3-triazol-4-yl)butoxy)-5-morpholinopyridin-3-yl)-4-methylphenyl)-3-(trifluoromethyl)benzamide]	++ (25% > RAF/E3 Dimerization ≥ 5%)
Cc1ncc(NC(=O)c2cccc(C(F)(F)F)c2)cc1-c1cnc(OCCOCCOCC(=O)NCCCCCc2cccc3c2CN(C2CCC(=O)NC2=O)C3=O)c(N2CCOCC2)c1 (stereo not drawn) [Compound 2.017, N-(6′-(2-(2-(2-((5-(2-(2,6-dioxopiperidin-3-yl)-1-oxoisoindolin-4-yl)pentyl)amino)-2-oxoethoxy)ethoxy)ethoxy)-2-methyl-5′-morpholino-[3,3′-bipyridin]-5-yl)-3-(trifluoromethyl)benzamide]	++++ (75% > RAF/E3 Dimerization ≥ 50%)
Cc1ncc(NC(=O)c2cccc(C(F)(F)F)c2)cc1-c1cnc(OCCOCCOCCOCC(=O)NCCCCCCc2cccc3c2CN(C2CCC(=O)NC2=O)C3=O)c(N2CCOCC2)c1 (stereo not drawn) [Compound 2.018, N-(6′-((18-(2-(2,6-dioxopiperidin-3-yl)-1-oxoisoindolin-4-yl)-11-oxo-3,6,9-trioxa-12-azaoctadecyl)oxy)-2-methyl-5′-morpholino-[3,3′-bipyridin]-5-yl)-3-(trifluoromethyl)benzamide]	++++ (75% > RAF/E3 Dimerization ≥ 50%)
Cc1ncc(NC(=O)c2cccc(C(F)(F)F)c2)cc1-c1cnc(OCCOCCOCC(=O)NCCOCCCc2cccc3c2CN(C2CCC(=O)NC2=O)C3=O)c(N2CCOCC2)c1 (stereo not drawn) [Compound 2.019, N-(6′-((15-(2-(2,6-dioxopiperidin-3-yl)-1-oxoisoindolin-4-yl)-8-oxo-3,6,12-trioxa-9-azapentadecyl)oxy)-2-methyl-5′-morpholino-[3,3′-bipyridin]-5-yl)-3-(trifluoromethyl)benzamide]	+++ (50% > RAF/E3 Dimerization ≥ 25)
Cc1ncc(NC(=O)c2cccc(C(F)(F)F)c2)cc1-c1cnc(OCCOCCOCCOCC(=O)NCCOCCCc2cccc3c2CN(C2CCC(=O)NC2=O)C3=O)c(N2CCOCC2)c1 (stereo not drawn) [Compound 2.020, N-(6′-((18-(2-(2,6-dioxopiperidin-3-yl)-1-oxoisoindolin-4-yl)-11-oxo-3,6,9,15-tetraoxa-12-azaoctadecyl)oxy)-2-methyl-5′-morpholino-[3,3′-bipyridin]-5-yl)-3-(trifluoromethyl)-benzamide]	+++ (50% > RAF/E3 Dimerization ≥ 25)
Cc1ncc(NC(=O)c2cccc(C(F)(F)F)c2)cc1-c1cnc(OCCOCc2cn(CCCCCC(=O)Nc3cccc4c3C(=O)N(C3CCC(=O)NC3=O)C4=O)nn2)c(N2CCOCC2)c1 (stereo not drawn) [Compound 2.022, N-(6′-(2-((1-(6-((2-(2,6-dioxopiperidin-3-yl)-1,3-dioxoisoindolin-4-yl)amino)-6-oxohexyl)-1H-1,2,3-triazol-4-yl)methoxy)ethoxy)-2-methyl-5′-morpholino-[3,3′-bipyridin]-5-yl)-3-(trifluoromethyl)benzamide]	++ (25% > RAF/E3 Dimerization ≥ 5%)
Cc1ncc(NC(=O)c2cccc(C(F)(F)F)c2)cc1-c1cnc(OCCOCCOCC(=O)NCCOCCCc2cccc3c2C(=O)N(C2CCC(=O)NC2=O)C3=O)c(N2CCOCC2)c1 (stereo not drawn) [Compound 2.023, N-(6′-((15-(2-(2,6-dioxopiperidin-3-yl)-1,3-dioxoisoindolin-4-yl)-8-oxo-3,6,12-trioxa-9-azapentadecyl)oxy)-2-methyl-5′-morpholino-[3,3′-bipyridin]-5-yl)-3-(trifluoromethyl)ben-zamide]	+ (5% > RAF/E3 Dimerization)
O=C1CCC(N2C(=O)c3cccc(NC(=O)CCCCCn4cc(CNC(=O)c5cc(Oc6ccc(NC(=O)Nc7ccc(Cl)c(C(F)(F)F)c7)cc6)ccn5)nn4)c3C2=O)C(=O)N1 (stereo not drawn) [Compound 2.024, 4-(4-(3-(4-chloro-3-(trifluoromethyl)phenyl)ureido)phenoxy)-N-((1-(6-((2-(2,6-dioxopiperidin-3-yl)-1,3-dioxoisoindolin-4-yl)amino)-6-oxohexyl)-1H-1,2,3-triazol-4-yl)methyl)picolinamide]	++ (25% > RAF/E3 Dimerization ≥ 5%)
O=C1CCC(N2C(=O)c3cccc(NC(=O)CCCCCn4cc(CCNC(=O)c5cc(Oc6ccc(NC(=O)Nc7ccc(Cl)c(C(F)(F)F)c7)cc6)ccn5)nn4)c3C2=O)C(=O)N1 (stereo not drawn) [Compound 2.025, 4-(4-(3-(4-chloro-3-(trifluoromethyl)phenyl)ureido)phenoxy)-N-(2-(1-(6-((2-(2,6-dioxopiperidin-3-yl)-1,3-dioxoisoindolin-4-yl)amino)-6-oxohexyl)-1H-1,2,3-triazol-4-yl)ethyl)picolinamide]	++ (25% > RAF/E3 Dimerization ≥ 5%)
O=C1CCC(N2C(=O)c3cccc(NC(=O)CCCCCn4cc(CCCCNC(=O)c5cc(Oc6ccc(NC(=O)Nc7ccc(Cl)c(C(F)(F)F)c7)cc6)ccn5)nn4)c3C2=O)C(=O)N1 (stereo not drawn) [Compound 2.026, 4-(4-(3-(4-chloro-3-(trifluoromethyl)phenyl)ureido)phenoxy)-N-(4-(1-(6-((2-(2,6-dioxopiperidin-3-yl)-1,3-dioxoisoindolin-4-yl)amino)-6-oxohexyl)-1H-1,2,3-triazol-4-yl)butyl)picolinamide]	+ (5% > RAF/E3 Dimerization)
